Two compounds from patent publication US9632088B2, “Methods and compositions for gamma-secretase assay” (MEMORIAL SLOAN-KETTERING CANCER CENTER, priority 2010, dated 2017) can be followed below.

Assay [1] has as its target T1, γ-secretase (HeLa membrane) (Homo sapiens, UniProt P49768).
T1 construct: host or cells: HeLa-S3 cells, total membrane fraction
The assay can be described thus: In vitro N1-Sb1 γ-secretase assay (ALPHA detection with SM320), HeLa membrane. The format is biochemical. The settings on record: 0.25% CHAPSO; for IC50: read-out: IC50 in inhibiting N1-Sb1 cleavage. The method, then: HeLa membrane fraction was isolated from HeLa-S3 cells (National Cell Culture Center). The cell pellet was resuspended in Buffer A (50 mM MES, 150 mM KCl, 5 mM CaCl2, 5 mM MgCl2) and lysed by passage through a French Press. N2a cells (murine neuroblastoma cells) over-expressing wild-type PS1, or mutants M146L or E280A, were obtained from Dr. Sangram Sisodia (University of Chicago, Chicago, Ill.). These cells were maintained in 50% Dulbecco's modified Eagle's medium high glucose, 50% Opti-Mem Reduced Serum Media, and 10% fetal calf serum. Cultured cells were pelleted by centrifugation and resuspended in hypotonic buffer (40 mM Tris, pH 7.4, 10 mM NaCl, 1 mM EDTA, and 0.5 mM DTT) for 20 minutes before being lysed with a dounce homogenizer. Nuclear debris from the HeLa and N2a cells were pelleted at 3000 rpm for 30 minutes. The resulting supernatants were ultracentrifuged at 100,000×g for 1 hour. The pellet that contained total cell membrane was resuspended in Buffer A. Mouse brains overexpressing knock-in wild type or M146V PS1 (gift from Dr. Hui Zheng, Amylin Pharmaceuticals, San Diego, Calif.) were homogenized with dounce homogenizer. The cell lysate was centrifuged at 3000 rpm for 30 minutes. The supernatants were ultracentrifuged at 100,000×g for 1 hour. Protein concentration was determined with the DC Protein Assay Kit according to the manufacturer's instructions (Bio-Rad, Hercules, Calif.).
An in vitro γ-secretase assay using a novel recombinant APP-derived substrate (termed “Sb4”) is disclosed in co-pending application U.S. Ser. No. 12/776,141. In the present assay based on a Notch-derived substrate, N1-Sb1 was incubated with the cell membrane fraction, prepared as described above, in the presence of 0.25% CHAPSO and 1×PIPES buffer (50 mM PIPES, pH 7.0, 150 mM KCl, 5 mM CaCl2, 5 mM MgCl2. The reaction was incubated at 37° C. for 2 hours. The Perkin Elmer AlphaScreen™ detection system was employed to assay for Notch cleavage. AlphaScreen (PerkinElmer Life and Analytical Sciences, Shelton, Conn.) is a bead based non-radioactive Amplified Luminescent Proximity Homogeneous Assay (ALPHA). When a biological interaction brings the beads together, a cascade of chemical reactions acts to produce a greatly amplified signal. Specifically, upon laser excitation, a photosensitizer in the “Donor” bead converts ambient (triplet) oxygen to the more reactive singlet state. […] As a result no fluorescence signal at 520-620 nm is produced.
In the present system, antibody SM320, Protein A-conjugated acceptor beads, and Streptavidin-conjugated donor beads (PerkinElmer) were added to the reaction at a final concentration of 0.2 μg/ml, 2.5 μg/ml and 5 μg/ml, respectively (diagrammed in FIG. 5A). […] The ALPHA signal was detected using the Envision plate reader (Perkin Elmer). The reactions were excited at 680 nm and signal was detected at 615 nm.
HeLa membrane was incubated with N1-Sb1 substrate in the presence of 0.25% CHAPSO. The γ-secretase cleavage product (cN1-Sb1) was detected by the PerkinElmer proximity assay (ALPHA) using the SM320 antibody, Protein A-conjugated acceptor-beads (which bind SM320) and streptavidin-conjugated donor-beads (which bind biotin) (FIG. 5A). cN1-Sb1 levels in DMSO-treated assay was 10-fold higher than in the presence of the inhibitor L-685,458 (L458; structure shown below)-treated assay. […]

Assay [2] has as its target T2, E280A PS1 NTF (γ-secretase active site) (Homo sapiens, UniProt P49768, E280A).
T2 construct: total membrane
The assay can be described thus: Photolabeling of PS1 NTF, N2a E280A PS1 membrane. The format is binding, murine. To be noted: probes 10 nM, 0.25% CHAPSO, normalized to JC8, excess L458 as competitor. As for the experimental part: (§1) Total cell membrane was pre-incubated in the presence of DMSO or 1 μM L458 in PIPES buffer containing 0.25% CHAPSO at 37° C. for 30 minutes. Then, photolabeling probes (JC8, L646 or GY4) (Li et al., 2000, Nature, 405:689-694, Chun et al., 2004, J Org. Chem., 69:7344-7347, Yang et al., 2009, Bioorg Med Chem. Lett., 19:922-925) at 10 nM were added and incubated for an additional 1 hour at 37° C. The reaction mixtures were irradiated at 350 nm for 45 minutes and solubilize with RIPA buffer. Biotinylated proteins in the soluble fraction were captured by Streptavidin resin (Pierce) overnight at 4° C. Bound proteins were eluted by boiling with SDS sample buffer and analyzed by western blotting with anti-PS1 NTF antibodies.
(§2) L646, GY4 and JC8, which photolabel the S2, S1, and S1′ subsites within the active site of PS1, respectively, were used for this study (FIG. 10b). Membranes isolated from N2a cells stably expressing wild-type (WT), M146L, or E280A PS1 were photolabeled with JC8, GY4 or L646 in the presence of 0.25% CHAPSO. […] After […] irradiation, biotinylated proteins were isolated with streptavidin beads and analyzed by western blotting with anti-PS1 NTF antibodies. […] To eliminate the effect of various amounts of γ-secretase existing in different cell lines, we normalized each probe with JC8 labeling in the same cell lines.

The target in assay [3] is T3, M146L PS1 NTF (γ-secretase active site) (Homo sapiens, UniProt P49768, M146L).
T3 construct: total membrane
Nature of the assay: Photolabeling of PS1 NTF, N2a M146L PS1 membrane. The format is binding, murine. To be noted: probes 10 nM, 0.25% CHAPSO, normalized to JC8, excess L458 as competitor. The method, then: as §1, §2

The target in assay [4] is T4, WT PS1 NTF (γ-secretase active site) (Homo sapiens, UniProt P49768).
T4 construct: total membrane
Nature of the assay: Photolabeling of PS1 NTF, N2a wild-type PS1 membrane. To be noted: probes 10 nM, 0.25% CHAPSO, normalized to JC8, excess L458 as competitor. The format is binding, murine. The method, then:
as §1, §2

A further assay deals with T5, γ-secretase (Homo sapiens, UniProt P49768).
T5 construct: endogenous in cells; host or cells: HEK293 cells transiently transfected with myc-tagged N1-ΔE (substrate only)
The assay can be described thus: 1536-well format ALPHA-based γ-secretase assay, control validation. It is filed as biochemical. To be noted: low control: 250 nM Compound E, 1% DMSO, full 1536-well plate. As for the experimental part: Based on the 384-well assay format described above, to the assay was miniaturized to a 1536-well format for automated high-throughput drug screening. Concentrations of SM320, protein A conjugated acceptor beads and streptavidin conjugated donor beads were titrated to minimize reagent usage. […] The assay was validated by comparing the high and low control signals from full 1536-well plates. The high controls contained 1% final DMSO concentration (v/v), while the low controls contains 250 nM of Compound E also at 1% final DMSO concentration (v/v).

One may read the IC50 as the point on the concentration scale where inhibition reaches its midpoint. As for `CC(C)C[C@H](NC(=O)[C@H](Cc1ccccc1)C[C@@H](O)[C@H](Cc1ccccc1)NC(=O)OC(C)(C)C)C(=O)N[C@@H](Cc1ccccc1)C(N)=O` [L458], in assay [1] (fold higher in DMSO), the “cN1-Sb1 levels in DMSO-treated assay versus inhibitor-treated assay” value was 10 fold. Besides, the IC50 in assay [1] was 0.7 nM. Moreover, the “Photolabeling of PS1 NTF (western blot)” value in assay [2], in assay [3] and in assay [4] was “completely prevented labeling” in each case.
Regarding `CC(NC(=O)Cc1cc(F)cc(F)c1)C(=O)NC1N=C(c2ccccc2)c2ccccc2N(C)C1=O` (stereo not shown) [Compound E], the “Average (ALPHA signal)” value on γ-secretase was determined as 319. Besides, the IC50 in assay [1] was 1 nM.
